Assay results from ChEMBL document CHEMBL1158459, “Discovery of a peroxisome proliferator activated receptor gamma (PPARgamma) modulator with balanced PPARalpha activity for the treatment of type 2 diabetes and dyslipidemia” (J Med Chem, 2009).
Calls of active or inactive are those of the source. The calls are words filed in the database; no cut-off is given here.

What was measured:
[1] = Cmax in C57BLKS/J-m+/+Leprdb db/db mouse at 10 mg/kg, po once daily for 11 days; assay type: ADME, organism-based; design: dose 10 mg/kg, route oral; conditions: in vivo
Mus musculus [2] = assay: Antidiabetic activity in high fat diet-fed streptozotocin-treated mouse assessed as reduction in plasma glucose levels at 5 mg/kg, po once daily for 12 days relative to control; assay type: functional; design: scale not given: the % may be the effect or the level left
Mus musculus [3] = assay: Antidiabetic activity in high fat diet-fed streptozotocin-treated mouse assessed as reduction in plasma glucose levels at 30 mg/kg, po once daily for 12 days relative to control; assay type: functional; design: scale not given: the % may be the effect or the level left
Rattus norvegicus [4] = assay: Antidiabetic activity in Zucker fa/fa rat assessed as decrease in triglyceride levels at 0.03 mg/kg, po once daily for 7 days; assay type: functional, organism-based; design: dose 0.03 mg/kg
Rattus norvegicus [5] = assay: Antidiabetic activity in Zucker fa/fa rat assessed as decrease in triglyceride levels at 0.3 mg/kg, po once daily for 7 days; assay type: functional, organism-based; design: dose 0.3 mg/kg
Rattus norvegicus [6] = assay: Antidiabetic activity in Zucker fa/fa rat assessed as decrease in triglyceride levels at 3 mg/kg, po once daily for 7 days; assay type: functional, organism-based; design: dose 3 mg/kg
Rattus norvegicus [7] = assay: Antidiabetic activity in Zucker fa/fa rat assessed as decrease in triglyceride levels at 15 mg/kg, po once daily for 7 days; assay type: functional, organism-based; design: dose 15 mg/kg
Rattus norvegicus [8] = assay: Antidiabetic activity in Zucker fa/fa rat assessed as decrease in triglyceride levels at 1 mg/kg, po once daily for 7 days; assay type: functional, organism-based; design: dose 1 mg/kg
Rattus norvegicus [9] = assay: Antidiabetic activity in Zucker fa/fa rat assessed as decrease in triglyceride levels at 10 mg/kg, po once daily for 7 days; assay type: functional, organism-based; design: dose 10 mg/kg
Rattus norvegicus [10] = assay: Antidiabetic activity in Zucker fa/fa rat assessed as decrease in triglyceride levels at 100 mg/kg, po once daily for 7 days; assay type: functional, organism-based; design: dose 100 mg/kg
Rattus norvegicus [11] = assay: Antidiabetic activity in po dosed Zucker fa/fa rat assessed as insulin lowering activity treated once daily for 7 days; assay type: functional
[12] = AUC in Sprague-Dawley rat at 150 mg/kg, po once daily for 14 days; assay type: ADME, organism-based; design: dose 150 mg/kg, route oral; conditions: plasma
[13] = (§1) AUC in rat at 2 mg/kg, po; assay type: ADME, organism-based, Plasma; design: dose 2 mg/kg, route oral; conditions: plasma
[14] = molecular target: T1, Peroxisome proliferator-activated receptor alpha (Mus musculus, UniProt P23204); assay: Agonist activity at mouse PPARalpha receptor expressed in african green monkey COS1 cells co-transfected with fused yeast Gal4-DBD by transactivation assay; assay type: functional, cell-based, COS-1
T1 sequence (P23204 whole entry): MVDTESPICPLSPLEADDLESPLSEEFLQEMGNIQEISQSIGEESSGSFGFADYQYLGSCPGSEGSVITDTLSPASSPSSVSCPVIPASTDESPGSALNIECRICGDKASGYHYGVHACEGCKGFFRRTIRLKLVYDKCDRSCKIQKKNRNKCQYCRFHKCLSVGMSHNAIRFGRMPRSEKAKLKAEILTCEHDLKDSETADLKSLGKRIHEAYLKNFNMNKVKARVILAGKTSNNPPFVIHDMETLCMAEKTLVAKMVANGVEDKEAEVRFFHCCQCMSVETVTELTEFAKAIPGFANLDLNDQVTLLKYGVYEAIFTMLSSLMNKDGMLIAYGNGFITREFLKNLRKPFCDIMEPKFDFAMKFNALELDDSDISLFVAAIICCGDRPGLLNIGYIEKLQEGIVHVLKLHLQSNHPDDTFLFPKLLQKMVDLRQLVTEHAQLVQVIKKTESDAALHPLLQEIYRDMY

Mus musculus [15] = assay: Antidiabetic activity in C57BLKS/J-m+/+Leprdb db/db mouse assessed as reduction in plasma glucose levels at 10 mg/kg, po once daily for 11 days relative to control; assay type: functional; design: scale not given: the % may be the effect or the level left
Mus musculus [16] = assay: Antidiabetic activity in C57BLKS/J-m+/+Leprdb db/db mouse assessed as reduction in plasma triglyceride levels at 10 mg/kg, po once daily for 11 days relative to control; assay type: functional; design: scale not given: the % may be the effect or the level left
[17] = AUC in C57BLKS/J-m+/+Leprdb db/db mouse at 10 mg/kg, po once daily for 11 days; assay type: ADME, organism-based; design: dose 10 mg/kg, route oral; conditions: plasma
[18] = molecular target: T2, Peroxisome proliferator-activated receptor alpha (Homo sapiens, UniProt Q07869); assay: Inhibition of human PPARalpha receptor by scintillation proximity assay
T2 sequence (Q07869 whole entry): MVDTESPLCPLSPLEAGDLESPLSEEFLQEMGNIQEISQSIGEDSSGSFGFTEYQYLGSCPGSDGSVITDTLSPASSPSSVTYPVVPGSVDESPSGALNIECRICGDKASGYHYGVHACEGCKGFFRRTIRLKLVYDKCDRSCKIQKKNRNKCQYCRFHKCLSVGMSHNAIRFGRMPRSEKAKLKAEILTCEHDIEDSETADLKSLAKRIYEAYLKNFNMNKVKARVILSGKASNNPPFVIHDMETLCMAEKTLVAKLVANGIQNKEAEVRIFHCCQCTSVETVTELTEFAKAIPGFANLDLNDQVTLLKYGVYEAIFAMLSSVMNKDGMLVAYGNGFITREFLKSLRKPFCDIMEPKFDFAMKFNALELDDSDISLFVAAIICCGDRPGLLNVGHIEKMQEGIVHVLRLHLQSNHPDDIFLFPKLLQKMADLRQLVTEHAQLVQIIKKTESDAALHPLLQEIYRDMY

[19] = molecular target: T2, Peroxisome proliferator-activated receptor alpha; assay type: functional, cell-based, COS-1
Description: Agonist activity at human PPARalpha receptor expressed in african green monkey COS1 cells co-transfected with fused yeast Gal4-DBD by transactivation assay

[20] = molecular target: T3, Peroxisome proliferator-activated receptor gamma (Homo sapiens, UniProt P37231)
T3 sequence (P37231 whole entry): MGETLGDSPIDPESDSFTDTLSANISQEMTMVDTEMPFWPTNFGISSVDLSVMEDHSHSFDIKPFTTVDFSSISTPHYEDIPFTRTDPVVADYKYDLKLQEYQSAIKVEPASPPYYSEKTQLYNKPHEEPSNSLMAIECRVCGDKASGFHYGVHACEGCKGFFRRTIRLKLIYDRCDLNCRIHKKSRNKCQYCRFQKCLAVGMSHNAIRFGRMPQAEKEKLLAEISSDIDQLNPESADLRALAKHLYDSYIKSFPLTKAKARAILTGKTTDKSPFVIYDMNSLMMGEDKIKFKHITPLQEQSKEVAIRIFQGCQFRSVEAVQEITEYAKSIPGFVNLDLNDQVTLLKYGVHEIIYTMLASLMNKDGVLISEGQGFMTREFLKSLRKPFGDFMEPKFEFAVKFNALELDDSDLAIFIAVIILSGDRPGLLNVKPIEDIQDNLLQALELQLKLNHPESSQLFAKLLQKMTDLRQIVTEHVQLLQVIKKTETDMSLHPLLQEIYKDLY
Description: Inhibition of human PPARgamma receptor by scintillation proximity assay

[21] = molecular target: T3, Peroxisome proliferator-activated receptor gamma; remark: listed apart in the source
Description: (§2) Agonist activity at human PPARgamma receptor expressed in african green monkey COS1 cells co-transfected with fused yeast Gal4-DBD by transactivation assay

Syrian golden hamster [22] = assay: Antidiabetic activity in Syrian golden hamster assessed as reduction in cholesterol level at 100 mg/kg, po once daily for 9 days relative to control; assay type: functional, Mesocricetus auratus; design: scale not given: the % may be the effect or the level left
Syrian golden hamster [23] = assay: Antidiabetic activity in Syrian golden hamster assessed as reduction in triglyceride level at 100 mg/kg, po once daily for 9 days relative to control; assay type: functional, Mesocricetus auratus; design: scale not given: the % may be the effect or the level left
[24] = AUC in Syrian golden hamster at 100 mg/kg, po once daily for 9 days; assay type: ADME, organism-based, Mesocricetus auratus; design: dose 100 mg/kg, route oral; conditions: plasma
Canis familiaris [25] = assay: Antidiabetic activity in Beagle dog assessed as reduction in total cholesterol level at 50 mg/kg, po once daily for 14 days relative to control; assay type: functional, Canis lupus familiaris; design: scale not given: the % may be the effect or the level left
[26] = AUC in Beagle dog at 50 mg/kg, po once daily for 14 days; assay type: ADME, organism-based, Canis lupus familiaris; design: dose 50 mg/kg, route oral; conditions: plasma
[27] = Cmax in Beagle dog at 50 mg/kg, po once daily for 14 days; assay type: ADME, organism-based, Canis lupus familiaris; design: dose 50 mg/kg, route oral; conditions: in vivo
[28] = AUC in Sprague-Dawley rat at 300 mg/kg, po once daily for 14 days; assay type: ADME, organism-based; design: dose 300 mg/kg, route oral; conditions: plasma
Rattus norvegicus [29] = assay: as §1; assay type: ADME, organism-based, Plasma; design: dose 2 mg/kg, route oral; conditions: in vivo
[30] = molecular target: T3, Peroxisome proliferator-activated receptor gamma; conditions: cos-1
Description: as §2

Canis familiaris [31] = assay: Antidiabetic activity in Beagle dog assessed as reduction in total cholesterol level at 4 mg/kg, po once daily for 14 days relative to control; assay type: functional, Canis lupus familiaris; design: scale not given: the % may be the effect or the level left

Structure (SMILES) | AUC [13] [µM·h] | EC50 [14] [µM] | Activity (Mus musculus [15]) [%] | Activity (Mus musculus [16]) [%] | IC50 [18] [µM] | EC50 [19] [µM] | IC50 [20] [µM] | EC50 [21] [µM] | other results
CN(CCOc1ccc(CC2SC(=O)NC2=O)cc1)c1ccccn1 (stereo unspecified) [ROSIGLITAZONE] | 16.4 | > 3 | 76 | 71 |  |  |  |  | Cmax [1]: 68 µM; Activity (Mus musculus [2]): 36%; Activity (Mus musculus [3]): 45%; Activity (Rattus norvegicus [4]): Active; Activity (Rattus norvegicus [5]): Active; Activity (Rattus norvegicus [6]): Active; Activity (Rattus norvegicus [7]): Active; Activity (Rattus norvegicus [8]): Active; Activity (Rattus norvegicus [9]): Active; Activity (Rattus norvegicus [10]): Active; ED50 (Rattus norvegicus [11]): 25 µM·h; AUC at 336 h [12]: 600 µM·h
CCc1ccc(CCOc2ccc(CC3SC(=O)NC3=O)cc2)nc1 (stereo unspecified) [PIOGLITAZONE] |  |  | 53 | 65 |  |  |  |  | AUC at 264 h [17]: 180 µM·h
CC[C@H](Oc1cccc(Cn2c(C)c(C(=O)c3ccc(Cl)cc3)c3ccc(OC(F)(F)F)cc32)c1)C(=O)O |  | > 3 | 22 | 7 | > 15 | 0.5 | 0.004 | 0.006 | 
CC(C)OC(=O)C(C)(C)Oc1ccc(C(=O)c2ccc(Cl)cc2)cc1 [FENOFIBRATE] |  |  |  |  |  |  |  |  | Activity (Syrian golden hamster [22]): 22.7%; Activity (Syrian golden hamster [23]): 33.7%; AUC at 216 h [24]: 1800 µM·h; Activity (Canis familiaris [25]): 17%; AUC at 336 h [26]: 117 µM·h; Cmax [27]: 15 µM; AUC at 336 h [28]: 5600 µM·h
CC[C@@](C)(Oc1cccc(Cn2c(C)c(C(=O)c3ccc(Cl)cc3)c3ccc(OC(F)(F)F)cc32)c1)C(=O)O (stereo in doubt; 12i) |  |  |  |  | 0.087 | 0.107 | 0.009 |  | AUC (Rattus norvegicus [29]): 1.3 µM·h; EC50 ([14]; cos-1): > 1 µM; Activity (Mus musculus [15]; 10 mg/kg): 71%; Activity (Mus musculus [16]; 10 mg/kg): 51%; EC50 [30]: 0.002 µM
CC[C@@](C)(Oc1cccc(Cn2c(C)c(C(=O)c3ccc(Cl)cc3)c3ccc(OC(F)(F)F)cc32)c1)C(=O)O (stereo in doubt; 12j) |  | > 1 |  |  | 0.764 | 0.129 | 0.005 | 0.002 | AUC (Rattus norvegicus [29]): 2.8 µM·h; Activity (Mus musculus [15]; 10 mg/kg): 45%; Activity (Mus musculus [16]; 10 mg/kg): 3%
Cc1c(C(=O)c2ccc(Cl)cc2)c2ccc(OC(F)(F)F)cc2n1Cc1cccc(O[C@@H](C(=O)O)C(C)C)c1 | 3.5 | 0.04 | 101 | 87 | 0.491 | 0.002 | 0.01 | 0.002 | 
Cc1c(C(=O)c2ccc(Cl)cc2)c2ccc(OC(F)(F)F)cc2n1Cc1cccc(O[C@H](C(=O)O)C(C)C)c1 | 1.5 | 0.36 | 76 | 37 | 2.98 | 0.37 | 0.017 | 0.021 | 
Cc1c(C(=O)c2ccc(Cl)cc2)c2ccc(OC(F)(F)F)cc2n1Cc1cccc(O[C@@H](C)C(=O)O)c1 | 0.6 | > 3 | 53 | 4 | > 15 | 4.89 |  |  | 
CCC[C@@H](Oc1cccc(Cn2c(C)c(C(=O)c3ccc(Cl)cc3)c3ccc(OC(F)(F)F)cc32)c1)C(=O)O | 1.7 | 0.11 | 94 | 80 | > 15 | 0.38 | 0.012 | 0.01 | 
Cc1c(C(=O)c2ccc(Cl)cc2)c2ccc(OC(F)(F)F)cc2n1Cc1cccc(OC2(C(=O)O)CCC2)c1 |  | 0.15 |  |  | 1.08 | 0.185 | 0.016 | 0.012 | 
CCC(C)(C)C(=O)O[C@H]1C[C@@H](C)C=C2C=C[C@H](C)[C@H](CC[C@@H]3C[C@@H](O)CC(=O)O3)[C@H]21 [SIMVASTATIN] |  |  |  |  |  |  |  |  | Activity (Canis familiaris [31]): 18.4%
Cc1c(Cc2cccc(OCC(=O)O)c2)c2cc(OC(F)(F)F)ccc2n1C(=O)c1ccc(Cl)cc1 |  | > 3 |  |  | > 15 | > 3 | 0.001 | 0.003 | 
Cc1c(C(=O)c2ccc(Cl)cc2)c2ccc(OC(F)(F)F)cc2n1Cc1cccc(O[C@H](C)C(=O)O)c1 | 1.1 | 0.028 | 105 | 90 | > 15 | 0.32 | 0.011 | 0.004 | 
CCC[C@H](Oc1cccc(Cn2c(C)c(C(=O)c3ccc(Cl)cc3)c3ccc(OC(F)(F)F)cc32)c1)C(=O)O | 1.2 | > 3 | 22 | 8 | > 50 | > 3 | 0.008 | 0.001 | 
Cc1c(C(=O)c2ccc(Cl)cc2)c2ccc(OC(F)(F)F)cc2n1Cc1cccc(OCC(=O)O)c1 |  | 0.35 |  |  | > 15 | > 3 | 0.002 | 0.002 | 
